Where two headings read alike, the source gives them in different places.
Key:
CD73 = CD73 (Homo sapiens (Human), UniProt P21589); assay: CD73 cellular assay (T cell stimulation assay); assay type: cell-based; details: human T cells, anti-CD3/CD28 stimulated, AMP + EHNA, 72 hours
Method: Procedures for T cell stimulation assay were the following: Day 1, coating the plate: diluting anti-CD3 to 1 μg/mL with sterile PBS; coating 96 well flat bottom tissue culture plates (Corning #3599) with 50 uL of diluted anti-CD3, centrifuging (1000 rpm) for 1 min; sealing the plate and incubating the plate at 4° C. overnight for antibody crosslinking.
Day 2, human T cell seeding: (a) washing the coated plate (from Day 1) with sterilized PBS buffer (2×100 uL); (b) re-suspending T cells and adjusting cell density to 0.5×10^6 cells/mL with growth media (X-VIVO 15+1% Pen/strep+1% glutamine), and seeding 100 μL/well (50,000 cells/well) in 96-well plates; (c) diluting CD28 antibody for 8x working concentration (8 μg/mL) with growth media, giving 1 μg/mL of the final concentration, followed by addition of CD28 antibody (25 μL) to cell plate; incubating the plates under 5% CO2 at 37° C. for 60 min; (d) adding compound (25 μL, 8x dilution with growth media) to cell plate, and incubating the plates under 5% CO2 at 37° C. for 60 min; (e) adding AMP (25 μL) and EHNA (25 μL, 8x dilution with growth media) to cell plate; (f) incubating the plates under 5% CO2 at 37° C. for 72 hours.
Day 5, collecting cell growth media and testing cell proliferation: (a) centrifuging the cell plate (1,000 rpm) for 5 min; (b) harvesting 150 μL of the cell culture media from each well to 96 well plate, followed by measurement of IFN-r expression by ELISA test; (c) taking a portion of the cell culture supernatant for cytokine analysis, removing the remaining supernatant, followed by addition of fresh growth media (X-VIVO 15+1% Pen/strep+1% glutamine, 100 μL); (d) adding Celltiter-Glo solution (50 μL) into each well for the measurement of cell proliferation by: (e) incubating the plates at room temperature for 10 min on a shaker; (f) transferring 100 μL solution into 96-well white plate and taking the readout of the Celltiter-Glo data using a TECAN Reader.

[1] = molecular target: Recombinant human 5′-nucleotidase (hCD73) (Homo sapiens (Human), UniProt P21589); assay: CD73 enzyme inhibition assay (hCD73, AMP substrate, PiColorLock Gold phosphate detection); assay type: biochemical; details: hCD73 1 nM solution, AMP 60 μM solution, 37° C. 20 min, absorbance 635 nm
Sequence of Recombinant human 5′-nucleotidase (hCD73) (P21589 27-574): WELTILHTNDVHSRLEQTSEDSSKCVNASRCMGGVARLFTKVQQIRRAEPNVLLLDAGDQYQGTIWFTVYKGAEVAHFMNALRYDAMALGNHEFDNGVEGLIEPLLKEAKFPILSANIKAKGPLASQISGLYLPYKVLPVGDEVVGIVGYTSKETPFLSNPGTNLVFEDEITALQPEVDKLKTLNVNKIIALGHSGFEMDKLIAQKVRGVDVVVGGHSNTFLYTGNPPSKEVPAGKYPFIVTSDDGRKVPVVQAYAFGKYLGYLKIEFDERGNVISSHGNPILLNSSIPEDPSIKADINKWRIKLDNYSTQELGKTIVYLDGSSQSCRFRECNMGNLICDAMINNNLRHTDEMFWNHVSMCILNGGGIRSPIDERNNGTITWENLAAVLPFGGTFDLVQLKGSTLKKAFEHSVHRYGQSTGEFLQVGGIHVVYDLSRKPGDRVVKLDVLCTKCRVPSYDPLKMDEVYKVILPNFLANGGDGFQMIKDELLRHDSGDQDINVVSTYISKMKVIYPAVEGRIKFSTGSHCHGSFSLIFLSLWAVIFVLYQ
Method: Test compound solution preparation: Stock solution of a test compound was prepared in DMSO at 10 mM concentration. A series of preset 10-concentration solutions of a test compound were prepared by diluting the stock solution in 5-fold gradient dilution with DMSO.
Assay buffer (lx): 20 mm Tris, 25 mM NaCl, 1 mM MgCl2, pH 7.5, 0.005% Tween-20 (freshly prepared, and ready for use).
An aliquot of 0.25 μL of compound solution or DMSO (blank control) was added to each test well of a micro well plate. Recombinant human 5′-nucleotidase (hCD73) was diluted to 1 nM in assay buffer; and an aliquot of 25 μL hCD73 (1 nM) solution was added to the corresponding wells of the plate. The contents of the well were well-mixed, and the plate was covered with sealing film, centrifuged at 1000 rpm for 30 sec., followed by incubation at room temperature for 15 min. AMP, the substrate, was diluted to 60 μM concentration in the assay buffer. To each reaction well was added 25 μL of AMP solution. After mixing well, the plate was covered with sealing film, centrifuged at 1000 rpm for 30 sec., and incubated at 37° C. for 20 min. The absorbance signal (end point) was measured on SPARK plate reader at 635 nm (See PiColorLock™ Gold Phosphate Detection System (Abcam) test kit for reference).
The reaction wells containing CD73 enzyme, substrate AMP and DMSO (no compound) were used as positive control, and the reaction wells containing substrate AMP and DMSO but no CD73 enzyme were used as negative control. The percent (%) inhibition at each concentration of compound was calculated based on and relative to the signal in the High and Low control wells contained within each assay plate. The High control wells were considered as 0% inhibition, and the low control wells, which didn't contain any compound but rather DMSO (final concentration=0.5%), as 100% inhibition. IC50 values were obtained using GraphPad Prism software.

[2] = Pharmacokinetic evaluation in ICR mice, intravenous; assay type: in vivo; details: mouse; ICR male mice, 1.0 mg/kg intravenous, plasma
Method: A test compound (1.0 mg/kg) was administered to fasted ICR male mice via intravenous injection, and blood samples were collected at time points of 0.08, 0.25, 0.5, 1, 2, 4, 6, 8 and 24 h after the administration. Plasma sample was separated by centrifugation (8000 rpm) and stored at −80° C. until the sample was analyzed. Concentrations of the test compound in the plasma were determined by HPLC-MS/MS: the plasma was dispensed into appropriate tubes containing internal standard and methanol or acetonitrile. The tubes were mixed vigorously for 3 minutes to achieve deproteinization and then centrifuged at 8000 rpm for 5 minutes. The supernatant was transferred to an autosampler vial, injected into the chromatographic system, and quantified on MS/MS detector. Pharmacokinetic parameters including AUC0-t, Cmax, Tmax, t1/2, MRT, Cl and Vd were calculated using WinNonlin 6.3 software. Table 3 summarizes key PK parameters for test compounds (AUC(0-t): the area under the curve from time 0 to time t; AUC(0-∞): the area under the curve from time 0 to infinity; t1/2: Half-life; CL: clearance; C0: the concentration of drug in blood if the drug molecules enter the circulation and are distributed immediately (i.e., at time 0)).

[3] = read-out: EC50, CTG (CellTiter-Glo, cell proliferation)
[4] = read-out: EC50, IFN-γ (ELISA, indicator for T-cell activity)

Sequence of CD73 (P21589 27-574): as above

Row | SMILES | EC50 (CD73; [3]) [nM] | EC50 (CD73; [4]) [nM] | IC50 [1] [nM] | AUC(0-inf) [2] [ng·h/mL] | AUC(0-t) [2] [ng·h/mL] | Cmax [2] [ng/mL] | half-life [2] [min]
1 | O=P(O)(O)CP(=O)(O)OC[C@H]1O[C@@H](n2cnc3c(N4CCC5(CCCCC5)C4)nc(Cl)nc32)C(O)C1O (stereo partly drawn) [Compound b, reference compound] | 7.53 | 14.2 | – | – | – | – | –
2 | O=P(O)(O)CP(=O)(O)OC[C@H]1O[C@@H](n2cnc3c(N4CC5(CCc6ccccc65)C4)nc(Cl)nc32)C(O)C1O (stereo partly drawn) [d-1] | 3.13 | 1.45 | – | – | – | – | –
3 | O=P(O)(O)CP(=O)(O)OC[C@H]1O[C@@H](n2cnc3c(N4CCC(c5ccccc5)(c5ccccc5)C4)nc(Cl)nc32)C(O)C1O (stereo partly drawn) [d-33] | 4.07 | 2.53 | 1.76 | – | – | – | –
4 | O=P(O)(O)CP(=O)(O)OC[C@H]1O[C@@H](n2cnc3c(N4CCC5(CC4)Cc4ccccc4C5)nc(Cl)nc32)[C@@H](O)C1O (stereo partly drawn) [d-21] | – | – | 1.42 | 7450 | 7430 | 12200 | 53.9
